Data from article PMC5336612, “Therapeutic effects of different doses of polyethylene glycosylated porcine glucagon-like peptide-2 on ulcerative colitis in male rats” (BMC Gastroenterology, 2017).
“And” between values parts separate entries of the source, which are not always exact repeats. Equal entries are not always repeated. Where two headings read alike, the source gives them in different places. Marks after values point to notes of the source that are not given here. Where no end group is shown, it is not given here.

Columns and labels:
[1] = tested on: dipeptidyl peptidase-IV (DPP-IV); conditions: in DPP-IV in vitro; cited from earlier work
[2] = rat, in vivo; cited from earlier work
[3] = tested on: colon of DSS colitis rats; assay: Colonic morphology and colonic damage score (histology); type: in vivo, rat; conditions: for Colonic damage score (CDS) of colon / Colon morphological structures: DSS colitis rats; for Colonic damage score (CDS) of colon: compared with DSS group, Fig. 1f; for colonic damage score: extent / colonic damage score: inflammation: grade 0-3; for colonic damage score: extent / colonic damage score: inflammation / colonic damage score: percent involvement / colonic damage score: crypt demage: individual rats, raw data; for colonic damage score: percent involvement: grade (1) 1-25% to (4) 76-100%; for colonic damage score: crypt demage: scale 0-4
Experimental: Histology was prepared as previously described. The paraffin-embedded sections were cut at 4 μm thickness and stained with haematoxylin and eosin. Duodenum villus-plus-crypt height was imaged using an Olympus DP-71 digital camera, and quantification was performed using an image processing system. Approximately 12 longitudinally oriented villi were measured from each H&E-stained section to make n = 1. All measurements were performed in a blinded manner. Colonic damage score (CDS), was evaluated in a blinded manner in tissue sections based on a grade scale ranging from 0 to 3 to measure the amount and depth of inflammation. The amount of crypt damage or regeneration was measured in a scale of 0–4, as indicated in Dieleman et al.. These changes were also quantified in terms of the percentage involvement of the disease process: (1) 1–25%, (2) 26–50%, (3) 51–75% and (4) 76–100%. Each section was separately scored for each feature by establishing the product of the grade for that feature and the percentage involvement. The sum of the products of the four scores was the CDS for each rat.

[4] = tested on: experimental rat model of ulcerative colitis (DSS); assay: Growth performance of DSS colitis rats (body weight, intestinal and colonic length and weight); type: in vivo
Experimental: Animal studies were conducted in accordance with the guidelines of the Zhejiang Farm Animal Welfare Council of China and approved by the ethics committee of Zhejiang Academy of Agricultural Sciences. Thirty-five male Sprague–Dawley rats were allocated into five treatments: control, DSS, DSS + PEG–pGLP-2(L), DSS + PEG–pGLP-2(M) and DSS + PEG–pGLP-2(H). Each treatment was performed in seven replicates on one rat. The rats were housed in a plastic bottom, wire-lid cages, maintained on a 12 h: 12 h light–dark cycle and allowed to acclimatise to the animal facility for 3 days. Rats in control group received only water; other rats were fed with 5% (w/v) DSS through their drinking water for 6 days from the first day of experiment, followed by 2 days of water consumption. The rats from the DSS + PEG–pGLP-2(L), DSS + PEG–pGLP-2(M) and DSS + PEG–pGLP-2(H) groups were intraperitoneally administered with 12.5, 25 and 100 nmol/kg PEG–pGLP-2, respectively, in 0.3 mL of saline solution daily from day 1 to day 6 of the trial. The rats in the control and DSS groups were administered with the same volume of saline solution. During the experimental period, behaviour and body weight were monitored daily. On day 8, all rats were anesthetised and sacrificed to collect their intestinal sample.
Samples collection was prepared as previously described. The segment from the pylorus to the Trietz ligament and from the ileocecal valve to the rectum was considered the duodenum and colon, respectively; these segments were cut free from their mesentery and immediately placed on ice. The duodenum and colon were cleaned of luminal contents, weighed and measured with a balance and a ruler. The middle segments (1 cm) of duodenum and colon were fixed in 10% formalin for 48 h and embedded in paraffin using standard techniques for histology. One centimetre of the distal segment of colon was collected for RNA isolation, which was immediately placed in 1 mL of RNA locker.

[5] = tested on: IL-1; assay: Real-time PCR expression in colon; type: in vivo, rat; conditions: DSS colitis rats, compared with DSS group, RT-PCR
Experimental: (§1) Total RNA was isolated using RNAiso Plus kits following the manufacturers’ instructions. A 2 μL aliquot of the total RNA was used for first-strand cDNA synthesis using PrimeScript® RT-reagent Kit with gDNA Eraser. Real-time PCR was carried out with ABI plus one (Life Technologies, Carlsbad, CA, USA) using SYBR Premix Ex TaqTM. The primers used were in Table 1. RT-PCR analysis was performed with an ABI Step One Plus Real-Time PCR System (Applied Biosystems, Inc.) using SYBR® Premix Ex TaqTM. PCR reactions were performed in triplicate under the following conditions: 95 °C for 30 s; 40 cycles of 95 °C for 5 s and 60 °C for 30 s. Fluorescent data for quantification were collected at the end of each cycle. Melting curve analysis was performed at 55–95 °C to verify the single product generation at the end of the assay. Standard curves were generated based on the data obtained from the standards of the 2–2^−6 dilution series template. Standard curve analysis was performed by using Step One Software (v2.2, Applied Biosystems, Inc.). Data were normalised to GADPH using the 2^−△△Ct quantitation method.

[6] = tested on: Claudin-1; assay: Real-time PCR expression in colon; type: in vivo, rat; conditions: DSS colitis rats, compared with DSS group, RT-PCR
Experimental: as §1

[7] = tested on: IL-6; assay: Real-time PCR expression in colon; type: in vivo, rat; conditions: DSS colitis rats, among the five groups, RT-PCR
Experimental: as §1

[8] = tested on: Occludin; assay: Real-time PCR expression in colon; type: in vivo, rat; conditions: DSS colitis rats, compared with DSS group, RT-PCR
Experimental: as §1

[9] = tested on: IL-10; assay: Real-time PCR expression in colon; type: in vivo, rat; conditions: DSS colitis rats, compared with DSS group, RT-PCR
Experimental: as §1

[10] = tested on: ZO-1; assay: Real-time PCR expression in colon; type: in vivo, rat; conditions: DSS colitis rats; 100 nmol/kg i.p. daily d1-6 (H); compared with DSS group; RT-PCR, 2^-ΔΔCt vs GADPH
Experimental: as §1

[11] = tested on: IFN-γ; assay: Real-time PCR expression in colon; type: in vivo, rat; conditions: DSS colitis rats; 25 nmol/kg i.p. daily d1-6 (M); compared with DSS group; RT-PCR
Experimental: as §1

[12] = tested on: TNF-α; assay: Real-time PCR expression in colon; type: in vivo, rat; conditions: DSS colitis rats, compared with DSS group, RT-PCR
Experimental: as §1

[13] = tested on: IL-7; assay: Real-time PCR expression in colon; type: in vivo, rat; conditions: DSS colitis rats, compared with DSS group, RT-PCR
Experimental: as §1

[14] = parameters: method as in PMID 19773525; conditions: patient; cited from earlier work
[15] = in vivo; cited from earlier work
[16] = in vivo, cited from earlier work
[17] = 12.5 nmol/kg i.p. daily d1-6 (L)
[18] = 100 nmol/kg i.p. daily d1-6 (H)
[19] = 5% DSS colitis, male SD rats, 12.5 nmol/kg i.p. daily d1-6 (L), day 8, mean ± SD
[20] = 5% DSS colitis, male SD rats, 25 nmol/kg i.p. daily d1-6 (M), day 8, mean ± SD
[21] = 5% DSS colitis, male SD rats, 100 nmol/kg i.p. daily d1-6 (H), day 8, mean ± SD
[22] = DSS colitis rats, 12.5 nmol/kg i.p. daily d1-6 (L), individual rats, raw data
[23] = DSS colitis rats, 25 nmol/kg i.p. daily d1-6 (M), individual rats, raw data
[24] = DSS colitis rats, 100 nmol/kg i.p. daily d1-6 (H), individual rats, raw data

## polyethylene glycosylated porcine glucagon-like peptide-2 (HGDGSFSDEMNTVLDNLATRDFINWLLHTKITDSL; also: mono-PEGylated with mPEG5k-SPA, site not given here; UniProt P01274 146-180, looked up, variant A2G) [PEG–pGLP-2, mono-PEGylated p[Gly^2]GLP-2 conjugate prepared with mPEG5k-SPA; long-acting form of pGLP-2]
[1]
  half-life (t1/2) longer than that of pGLP-2: 16 fold
[2]
  half-life: 3.37 h
  t1/2: 3.38 h
[3]; [17]
  Colonic damage score (CDS) of colon: significantly (p < 0.05) decreased
  colonic damage score: extent: 0.00 and 1.00
  colonic damage score: inflammation: 1.00 and 2.00
  colonic damage score: percent involvement: 0.00 and 1.00
  colonic damage score: crypt demage: 0.00 and 1.00
[3]; 25 nmol/kg i.p. daily d1-6 (M), Fig. 1d
  Colon morphological structures: almost normal with no damage
[3]; 25 nmol/kg i.p. daily d1-6 (M)
  Colonic damage score (CDS) of colon: significantly (p < 0.05) decreased
  colonic damage score: extent: 0.00 and 1.00
  colonic damage score: inflammation: 2.00 and 1.00
  colonic damage score: percent involvement: 0.00 and 1.00
  colonic damage score: crypt demage: 0.00 and 3.00 and 1.00
[3]; 100 nmol/kg i.p. daily d1-6 (H), Fig. 1e
  Colon morphological structures: almost normal with no damage
[3]; [18]
  Colonic damage score (CDS) of colon: significantly (p < 0.05) decreased
  colonic damage score: extent: 0.00
  colonic damage score: inflammation: 1.00 and 2.00
  colonic damage score: percent involvement: 0.00 and 1.00
  colonic damage score: crypt demage: 0.00 and 3.00
[4]; [19]
  Body weight change: 21.45 ± 2.00^b %
  Colonic length: 14.74 ± 1.90^a cm
  Intestinal length: 94.50 ± 7.07 cm
[4]; [20]
  Body weight change: 21.46 ± 4.65^b %
  Colonic length: 14.48 cm
  Intestinal length: 99.10 ± 8.03 cm
[4]; [21]
  Body weight change: 20.63 ± 3.4^b %
  Colonic length: 13.42 cm
  Intestinal length: 99.56 ± 6.82 cm
[4]; [22]
  Colonic weight: 3.68 g and 1.94 g and 1.55 g and 1.6 g and 3.59 g and 2.4 g
  Intestinal length: 99.0 cm and 95.0 cm and 102.0 cm and 93.0 cm
  Intestinal weight: 8.25 g and 6.51 g and 7.68 g and 5.4 g and 8.63 g and 9.24 g
  final weight: 240 g and 217 g and 219 g and 157 g and 223 g
[4]; [23]
  Colonic weight: 3.22 g and 2.19 g and 2.7 g and 2.5 g and 3.3 g and 3 g
  Intestinal weight: 6 g and 6.93 g and 9 g and 8.4 g and 8.73 g and 7.5 g
  final weight: 220 g and 180 g and 246 g and 182 g and 230 g and 212 g
[4]; [24]
  Colonic length: 14.7 cm and 12.7 cm and 13.7 cm and 13.0 cm
  Colonic weight: 2.55 g and 2.37 g and 1.85 g and 2.2 g and 2.94 g
  Intestinal weight: 10 g and 7.62 g and 7.22 g and 8 g and 7.87 g and 9.26 g
  final weight: 221 g and 218 g and 214 g and 233 g and 219 g and 242 g
[5]; [17]
  Expression of IL-1 in colon: significantly (p < 0.05) decreased
[5]; 25 nmol/kg i.p. daily d1-6 (M)
  Expression of IL-1 in colon: significantly (p < 0.05) decreased
[5]; [18]
  Expression of IL-1 in colon: significantly (p < 0.05) decreased
[6]; 25 nmol/kg i.p. daily d1-6 (M)
  Expression of claudin-1 in colon: significantly (p < 0.05) decreased
[6]; [18]
  Expression of claudin-1 in colon: significantly (p < 0.05) decreased
[7]; [17]
  Expression of IL-6 in colon: No significant differences
[7]; 25 nmol/kg i.p. daily d1-6 (M)
  Expression of IL-6 in colon: No significant differences
[7]; [18]
  Expression of IL-6 in colon: No significant differences
[8]; 25 nmol/kg i.p. daily d1-6 (M)
  Expression of occludin in colon: significantly (p < 0.05) increased
[8]; [18]
  Expression of occludin in colon: significantly (p < 0.05) increased
[9]; [17]
  Expression of IL-10 in colon: significantly (p < 0.05) decreased
[9]; 25 nmol/kg i.p. daily d1-6 (M)
  Expression of IL-10 in colon: significantly (p < 0.05) decreased
[10]
  Expression of ZO-1 in colon: significantly (p < 0.05) increased
[11]
  Expression of IFN-γ in colon: significantly (p < 0.05) decreased
[12]; [17]
  Expression of TNF-α in colon: significantly (p < 0.05) decreased
[12]; 25 nmol/kg i.p. daily d1-6 (M)
  Expression of TNF-α in colon: significantly (p < 0.05) decreased
[12]; [18]
  Expression of TNF-α in colon: significantly (p < 0.05) decreased
[13]; [17]
  Expression of IL-7 in colon: significantly (p < 0.05) decreased
[13]; 25 nmol/kg i.p. daily d1-6 (M)
  Expression of IL-7 in colon: significantly (p < 0.05) decreased
[13]; [18]
  Expression of IL-7 in colon: significantly (p < 0.05) decreased

## teduglutide
[14]
  t1/2: 2.99 h

## porcine glucagon-like peptide-2 (HADGSFSDEMNTVLDNLATRDFINWLLHTKITDSL; Glucagon-like peptide 2; UniProt P01274 146-180, looked up) [pGLP-2]
[15]
  half-life of intact pGLP-2: 8.4 min

## HGDGSFSDEMNTVLDNLATRDFINWLLHTKITDSL [p[Gly^2]GLP-2, Porcine [Gly^2] GLP-2]
[2]
  half-life: 0.817 h

## PEG(2 k)-Lys-GLP-1: PEGylated glucagon-like peptide-1 of Lee et al.
[16]; iv
  half-life increase: 16 fold
[16]; sc
  half-life increase: 3.2 fold
